According to US5698515A, “Insulin-containing polymer composition for oral administration” (Institut Neftekhimicheskogo Sinteza Imeni A.V.Topchieva …, priority 1994, dated 1997):

Experiments:
[1] = test system: white rats with experimental diabetes (streptozotocin); assay: Blood glucose in rats with streptozotocin-induced experimental diabetes; format: in vivo; conditions: diabetic rat, p.e. (subcutaneously), ± 8%
Description: Experimental diabetes is obtained (induced) in white rats of […], weighing 180 g., by way of intraperitoneally administered streptozotocin in the amount of 70 mg. for 1 kg. of weight. Synthesized polymers began to be introduced after the glucose level has exceeded 400 mg. %.
The procedure is conducted according to Example 12 with an equal amount of insulin administered subcutaneously in the form of solution.

rabbits [2] = assay: Glucose concentration in blood of rabbits after oral administration of insulin hydrogels; format: in vivo; conditions: rabbit, orally, ± 8%
Description: 0.1 g. of a pre-dried crosslinked polyacrylamide, modified with ovomucoid, is placed in 1 ml. of an aqueous solution of insulin (insulin activity is 25 U/mg.) with a concentration of 1.0 mg./ml. per hour at room temperature. During this time limit the polymer swells completely and is ready to use. The synthesized hydrogel in an amount corresponding to 5 units of insulin per kg. of animal weight is administered to rabbits orally, using a catheter. Blood samples are collected after 30, 60, 90 and 120 minutes.
The procedure is conducted according to Example 1 using various crosslinked modified polymers, various concentrations of the insulin solution, various quantities of the cross-linked modified polymers and various amounts of ovomucoid.
The procedure is conducted according to Example 1 but using a nonmodified polyacrylamide hydrogel.
Rabbits are treated orally with an insulin solution in an amount of 7 U/kg. of animal weight, a mixture of ovomucoid (2.5 mg./kg. weight) and insulin (8 U/kg) or a modified hydrogel (200 mg./kg. weight).

rabbits [3] = conditions: subcutaneous injection, 0.23 units of insulin, cited from earlier work

14k: Control: porcine insulin solution administered subcutaneously to rats [Example 14k]
Glucose Conc. in Blood ([1]; 0 min): 400 Mg./100 ml. | Glucose Conc. in Blood ([1]; 30 min after administration): 160 Mg./100 ml. | Glucose Conc. in Blood ([1]; 60 min after administration): 145 Mg./100 ml. | Glucose Conc. in Blood ([1]; 90 min after administration): 150 Mg./100 ml.

15k: Control: porcine insulin solution given orally to rabbits, 7 U/kg [Example 15k]
Glucose Conc. in Blood (rabbits [2]; 0 min (start), 5 U insulin/kg in Ex. 1 (Ex. 15: 7 U/kg; Ex. 16: 8 U/kg + ovomucoid 2.5 mg/kg; Ex. 17: 200 mg/kg hydrogel)): 152 Mg./100 ml. | Glucose Conc. in Blood (rabbits [2]; 30 min after administration): 151 Mg./100 ml. | Glucose Conc. in Blood (rabbits [2]; 60 min after administration): 150 Mg./100 ml. | Glucose Conc. in Blood (rabbits [2]; 90 min after administration): 160 Mg./100 ml.

insulin
glucose concentration in blood (rabbits [3]; 150 min. after the injection): 120 mg./100 ml. | reduction of glucose concentration in blood (rabbits [3]; 150 min. after the injection): 74% | glucose concentration in blood, initial (rabbits [3]; before): 330 mg./100 ml.
